Key:
[1] = target: T1, purified recombinant human PI3K enzyme γ (Homo sapiens, UniProt P48736); assay: Inhibition of PI3-Kinase enzymatic activity (HTRF enzyme assay), γ; format: biochemical; conditions: 1 μM compound; PI3K γ 100 ng/well; PIP2 10 μM; ATP 50 μM; read-out: Percentage inhibition of PI3K activity, γ
T1 construct: purchased Invitrogen, USA
Experimental: (§1) Inhibition of PI3-Kinase enzymatic activity was determined using a homogeneous time-resolved fluorescence (HTRF) kit from Eurofins. 1 μM of Compounds of present invention were premixed with DMSO. The experiment was initiated by mixing 1.0% DMSO as vehicle/compounds with purified recombinant human PI3K enzyme {δ (50 ng/well); γ (100 ng/well)} (Invitrogen, USA) and substrate (PIP2, 10 μM) in the wells and incubation for 15 min at room temperature. There after ATP was added (δ at 200 μM, and γ at 50 μM) in to the wells containing reaction mixture, followed by re-incubation for 30 minutes at room temperature. Reaction was terminated by addition of a stopping solution and was further incubated for 4 hours at room temperature before reading using Envision multimode reader (Perkin Elmer). Percentage inhibition of PI3K activity was calculated by determining ratio of specific europium 665 nm energy transfer signal to reference 615 nm signals.

[2] = target: T2, purified recombinant human PI3K enzyme δ (Homo sapiens, UniProt O00329); assay: Inhibition of PI3-Kinase enzymatic activity (HTRF enzyme assay), δ; format: biochemical; conditions: 1 μM compound; PI3K δ 50 ng/well; PIP2 10 μM; ATP 200 μM; read-out: Percentage inhibition of PI3K activity, δ
T2 construct: purchased Invitrogen, USA
Experimental: as §1

T1 sequence (P48736 whole entry): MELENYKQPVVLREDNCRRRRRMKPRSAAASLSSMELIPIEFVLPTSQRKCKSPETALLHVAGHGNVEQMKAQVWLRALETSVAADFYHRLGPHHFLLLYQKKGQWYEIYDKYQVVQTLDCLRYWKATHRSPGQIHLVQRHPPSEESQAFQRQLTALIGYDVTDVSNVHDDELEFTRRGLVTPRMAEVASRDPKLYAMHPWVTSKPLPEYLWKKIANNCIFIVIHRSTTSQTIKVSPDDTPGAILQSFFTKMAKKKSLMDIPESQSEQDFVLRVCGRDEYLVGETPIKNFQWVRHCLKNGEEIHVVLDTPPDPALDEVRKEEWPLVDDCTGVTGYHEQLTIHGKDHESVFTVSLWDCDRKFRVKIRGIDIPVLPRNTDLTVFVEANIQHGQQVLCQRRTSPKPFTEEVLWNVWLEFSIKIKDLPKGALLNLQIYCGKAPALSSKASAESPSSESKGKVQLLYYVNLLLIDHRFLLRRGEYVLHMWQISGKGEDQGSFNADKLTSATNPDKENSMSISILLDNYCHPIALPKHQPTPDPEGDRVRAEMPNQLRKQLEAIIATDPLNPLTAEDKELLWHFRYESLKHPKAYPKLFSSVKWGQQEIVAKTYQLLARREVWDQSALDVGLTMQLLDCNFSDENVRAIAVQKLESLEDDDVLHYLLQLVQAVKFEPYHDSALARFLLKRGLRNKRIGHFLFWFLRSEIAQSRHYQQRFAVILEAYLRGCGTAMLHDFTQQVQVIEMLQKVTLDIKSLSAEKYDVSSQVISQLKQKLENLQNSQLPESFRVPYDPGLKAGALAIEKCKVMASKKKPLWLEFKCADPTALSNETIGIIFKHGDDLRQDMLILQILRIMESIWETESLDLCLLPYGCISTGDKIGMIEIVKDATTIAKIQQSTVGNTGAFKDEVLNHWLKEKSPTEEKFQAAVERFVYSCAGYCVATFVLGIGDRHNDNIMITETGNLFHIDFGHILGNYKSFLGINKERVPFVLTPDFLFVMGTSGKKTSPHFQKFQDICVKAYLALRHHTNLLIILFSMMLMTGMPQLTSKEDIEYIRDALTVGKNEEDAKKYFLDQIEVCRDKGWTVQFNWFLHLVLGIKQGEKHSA
T2 sequence (O00329 whole entry): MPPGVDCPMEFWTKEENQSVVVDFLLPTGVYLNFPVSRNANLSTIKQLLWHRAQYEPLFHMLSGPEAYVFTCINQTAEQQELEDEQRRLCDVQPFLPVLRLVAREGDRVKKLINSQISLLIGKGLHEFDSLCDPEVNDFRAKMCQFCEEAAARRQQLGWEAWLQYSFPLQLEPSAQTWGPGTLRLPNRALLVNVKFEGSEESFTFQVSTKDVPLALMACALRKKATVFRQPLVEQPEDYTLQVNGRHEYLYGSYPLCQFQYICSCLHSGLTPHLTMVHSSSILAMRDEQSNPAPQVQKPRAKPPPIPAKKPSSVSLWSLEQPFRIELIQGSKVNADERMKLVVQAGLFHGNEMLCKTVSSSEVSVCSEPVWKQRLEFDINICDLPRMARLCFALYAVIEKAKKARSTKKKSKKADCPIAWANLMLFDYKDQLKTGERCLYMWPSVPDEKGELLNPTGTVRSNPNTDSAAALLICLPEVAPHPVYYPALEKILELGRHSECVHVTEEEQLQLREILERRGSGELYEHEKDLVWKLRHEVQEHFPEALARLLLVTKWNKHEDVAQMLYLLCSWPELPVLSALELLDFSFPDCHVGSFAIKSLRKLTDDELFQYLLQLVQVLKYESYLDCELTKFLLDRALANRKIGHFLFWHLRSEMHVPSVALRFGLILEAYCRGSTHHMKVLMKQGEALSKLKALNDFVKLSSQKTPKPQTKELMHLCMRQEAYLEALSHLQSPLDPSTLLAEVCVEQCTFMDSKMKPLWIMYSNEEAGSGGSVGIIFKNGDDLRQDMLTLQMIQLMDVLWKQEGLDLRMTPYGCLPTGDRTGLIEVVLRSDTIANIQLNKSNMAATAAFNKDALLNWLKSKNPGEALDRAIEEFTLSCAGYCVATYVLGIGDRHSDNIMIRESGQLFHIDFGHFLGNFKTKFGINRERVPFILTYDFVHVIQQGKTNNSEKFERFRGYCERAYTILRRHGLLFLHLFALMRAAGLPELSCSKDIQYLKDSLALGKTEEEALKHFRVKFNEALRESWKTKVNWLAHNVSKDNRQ
T2 sequence (P27986 whole entry partner): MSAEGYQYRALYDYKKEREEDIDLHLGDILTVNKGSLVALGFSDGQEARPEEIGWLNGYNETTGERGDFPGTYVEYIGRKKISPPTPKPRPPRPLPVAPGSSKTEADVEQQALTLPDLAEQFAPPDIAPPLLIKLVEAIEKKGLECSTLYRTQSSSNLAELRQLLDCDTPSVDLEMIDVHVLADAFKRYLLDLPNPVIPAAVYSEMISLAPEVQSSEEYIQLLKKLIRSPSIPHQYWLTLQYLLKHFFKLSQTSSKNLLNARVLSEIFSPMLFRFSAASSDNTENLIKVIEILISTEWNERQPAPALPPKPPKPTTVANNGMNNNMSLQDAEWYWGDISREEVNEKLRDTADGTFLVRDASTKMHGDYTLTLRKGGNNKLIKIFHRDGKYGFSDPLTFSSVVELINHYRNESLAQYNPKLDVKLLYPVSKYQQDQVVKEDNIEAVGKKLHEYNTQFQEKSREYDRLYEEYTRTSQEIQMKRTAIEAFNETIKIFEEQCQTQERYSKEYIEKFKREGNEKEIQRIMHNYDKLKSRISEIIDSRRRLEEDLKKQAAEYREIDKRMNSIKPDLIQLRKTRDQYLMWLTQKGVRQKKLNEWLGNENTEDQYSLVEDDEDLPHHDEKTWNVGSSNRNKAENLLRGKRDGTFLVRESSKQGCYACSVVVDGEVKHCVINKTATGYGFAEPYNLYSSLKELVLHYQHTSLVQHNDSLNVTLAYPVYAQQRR

Row | inhibition at 1 µM [1] [%] | inhibition at 1 µM [2] [%] | SMILES
1 | 60 to 80 | 80 to 100 | Cc1ccc(C)n1-n1c(Cn2nc(-c3ccc(O)c4c3CC(C)(C)O4)c3c(N)ncnc32)nc2cccc(C#CCN3CCN(C)CC3)c2c1=O [compound 57, 2-{[4-amino-3-(7-hydroxy-2,2-dimethyl-2,3-dihydro-1-benzofuran-4-yl)-1H-pyrazolo[3,4-d]pyrimidin-1-yl]methyl}-3-(2,5-dimethyl-1H-pyrrol-1-yl)-5-[3-(4-methylpiperazin-1-yl)prop-1-yn-1-yl]quinazolin-4(3H)-one]
2 | 60 to 80 | 80 to 100 | Cc1ccccc1C1(n2c(Cn3nc(-c4ccc(O)c5c4CC(C)(C)O5)c4c(N)ncnc43)nc3cccc(Cl)c3c2=O)CC1 [compound 55, 2-{[4-amino-3-(7-hydroxy-2,2-dimethyl-2,3-dihydro-1-benzofuran-4-yl)-1H-pyrazolo[3,4-d]pyrimidin-1-yl]methyl}-5-chloro-3-[1-(2-methylphenyl)cyclopropyl]quinazolin-4(3H)-one]
3 | 80 to 100 | 80 to 100 | Cc1ccc(C)n1-n1c(Cn2nc(-c3ccc(O)c4c3CC(C)(C)O4)c3c(N)ncnc32)nc2cccc(C#CCN3CCNC(=O)C3)c2c1=O [compound 68, 2-{[4-amino-3-(7-hydroxy-2,2-dimethyl-2,3-dihydro-1-benzofuran-4-yl)-1H-pyrazolo[3,4-d]pyrimidin-1-yl]methyl}-3-(2,5-dimethyl-1H-pyrrol-1-yl)-5-[3-(3-oxopiperazin-1-yl)prop-1-yn-1-yl]quinazolin-4(3H)-one]
4 | 80 to 100 | 80 to 100 | Cc1cccc2nc(C(C)n3nc(-c4ccc(O)c5c4CC(C)(C)O5)c4c(N)ncnc43)n(-n3cccc3)c(=O)c12 (racemic) [compound 96, 2-{(1RS)-1-[4-amino-3-(7-hydroxy-2,2-dimethyl-2,3-dihydro-1-benzofuran-4-yl)-1H-pyrazolo[3,4-d]pyrimidin-1-yl]ethyl}-5-methyl-3-(1H-pyrrol-1-yl)quinazolin-4(3H)-one]
5 | 60 to 80 | 80 to 100 | Cc1ccc(C)n1-n1c(Cn2nc(-c3ccc(O)c4c3CC(C)(C)O4)c3c(N)ncnc32)nc2cccc(-c3cnn(C)c3)c2c1=O [compound 62, 2-{[4-amino-3-(7-hydroxy-2,2-dimethyl-2,3-dihydro-1-benzofuran-4-yl)-1H-pyrazolo[3,4-d]pyrimidin-1-yl]methyl}-3-(2,5-dimethyl-1H-pyrrol-1-yl)-5-(1-methyl-1H-pyrazol-4-yl)quinazolin-4(3H)-one]
6 | 60 to 80 | 80 to 100 | COc1ccc(-c2nn(Cc3nc4cccc(C)c4c(=O)n3-n3c(C)ccc3C)c3ncnc(N)c23)c2c1OC(C)(C)C2 [compound 78, 2-{[4-amino-3-(7-methoxy-2,2-dimethyl-2,3-dihydro-1-benzofuran-4-yl)-1H-pyrazolo[3,4-d]pyrimidin-1-yl]methyl}-3-(2,5-dimethyl-1H-pyrrol-1-yl)-5-methylquinazolin-4(3H)-one]
7 | 80 to 100 | 80 to 100 | Cc1ccc(C)n1-n1c(Cn2nc(-c3ccc(O)c4c3CC(C)(C)O4)c3c(N)ncnc32)nc2cccc(-c3cccn3C)c2c1=O [compound 77, 2-{[4-amino-3-(7-hydroxy-2,2-dimethyl-2,3-dihydro-1-benzofuran-4-yl)-1H-pyrazolo[3,4-d]pyrimidin-1-yl]methyl}-3-(2,5-dimethyl-1H-pyrrol-1-yl)-5-(1-methyl-1H-pyrrol-2-yl)quinazolin-4(3H)-one]
8 | 80 to 100 | 80 to 100 | Cc1ccc(C)n1-n1c(Cn2nc(-c3ccc(O)c4c3CC(C)(C)O4)c3c(N)ncnc32)nc2ccccc2c1=O [compound 88, 2-{[4-amino-3-(7-hydroxy-2,2-dimethyl-2,3-dihydro-1-benzofuran-4-yl)-1H-pyrazolo[3,4-d]pyrimidin-1-yl]methyl}-3-(2,5-dimethyl-1H-pyrrol-1-yl)quinazolin-4(3H)-one]
9 | 60 to 80 | 80 to 100 | Cc1ccc(C)n1-n1c(Cn2nc(-c3ccc(O)c4c3CC(C)(C)O4)c3c(N)ncnc32)nc2cccc(C#CCN3CCOCC3)c2c1=O [compound 80, 2-{[4-amino-3-(7-hydroxy-2,2-dimethyl-2,3-dihydro-1-benzofuran-4-yl)-1H-pyrazolo[3,4-d]pyrimidin-1-yl]methyl}-3-(2,5-dimethyl-1H-pyrrol-1-yl)-5-[3-(morpholin-4-yl)prop-1-yn-1-yl]quinazolin-4(3H)-one]
10 | 60 to 80 | 80 to 100 | Cn1cc(-c2cccc3nc(Cn4nc(-c5ccc(O)c6c5CC(C)(C)O6)c5c(N)ncnc54)n(C4(c5ccsc5)CC4)c(=O)c23)cn1 [compound 69, 2-{[4-amino-3-(7-hydroxy-2,2-dimethyl-2,3-dihydro-1-benzofuran-4-yl)-1H-pyrazolo[3,4-d]pyrimidin-1-yl]methyl}-5-(1-methyl-1H-pyrazol-4-yl)-3-[1-(thiophen-3-yl)cyclopropyl]quinazolin-4(3H)-one]

The next lines start with the molecule.

Row | SMILES | inhibition at 1 µM [1] [%] | inhibition at 1 µM [2] [%]
11 | CC1(C)Cc2c(-c3nn(Cc4nc5cccc(Cl)c5c(=O)n4-n4cc5ccccc5n4)c4ncnc(N)c34)ccc(O)c2O1 [Compound No. 4, 2-{[4-amino-3-(7-hydroxy-2,2-dimethyl-2,3-dihydro-1-benzofuran-4-yl)-1H-pyrazolo[3,4-d]pyrimidin-1-yl]methyl}-5-chloro-3-(2H-indazol-2-yl)quinazolin-4(3H)-one] | 40 to 60 | 80 to 100
12 | CC(=O)NCC#Cc1cccc2nc(Cn3nc(-c4ccc(O)c5c4CC(C)(C)O5)c4c(N)ncnc43)n(-n3cccc3)c(=O)c12 [compound 28, N-{3-[2-{[4-amino-3-(7-hydroxy-2,2-dimethyl-2,3-dihydro-1-benzofuran-4-yl)-1H-pyrazolo[3,4-d]pyrimidin-1-yl]methyl}-4-oxo-3-(1H-pyrrol-1-yl)-3,4-dihydroquinazolin-5-yl]prop-2-yn-1-yl}acetamide] | 80 to 100 | 80 to 100
13 | Cc1cccc2nc(Cn3nc(-c4ccc(O)c5c4CC(C)(C)O5)c4c(N)ncnc43)n(C3(c4ccccc4)CC3)c(=O)c12 [Compound No. 8, 2-{[4-amino-3-(7-hydroxy-2,2-dimethyl-2,3-dihydro-1-benzofuran-4-yl)-1H-pyrazolo[3,4-d]pyrimidin-1-yl]methyl}-5-methyl-3-(1-phenylcyclopropyl)quinazolin-4(3H)-one] | 60 to 80 | 80 to 100
14 | Cc1ccc(C)n1-n1c(Cn2nc(-c3ccc(O)c4c3CC(C)(C)O4)c3c(N)ncnc32)nc2cccc(C#CC3CC3)c2c1=O [compound 43, 2-{[4-amino-3-(7-hydroxy-2,2-dimethyl-2,3-dihydro-1-benzofuran-4-yl)-1H-pyrazolo[3,4-d]pyrimidin-1-yl]methyl}-5-(cyclopropylethynyl)-3-(2,5-dimethyl-1H-pyrrol-1-yl)quinazolin-4(3H)-one] | 80 to 100 | 80 to 100
15 | CC1(C)Cc2c(-c3nn(Cc4nc5cccc(C#CCN6CCOCC6)c5c(=O)n4-n4cccc4)c4ncnc(N)c34)ccc(O)c2O1 [compound 35, 2-{[4-amino-3-(7-hydroxy-2,2-dimethyl-2,3-dihydro-1-benzofuran-4-yl)-1H-pyrazolo[3,4-d]pyrimidin-1-yl]methyl}-5-[3-(morpholin-4-yl)prop-1-yn-1-yl]-3-(1H-pyrrol-1-yl)quinazolin-4(3H)-one] | 60 to 80 | 80 to 100
16 | CC1(C)Cc2c(-c3nn(Cc4nc5cccc(Br)c5c(=O)n4-n4cccc4)c4ncnc(N)c34)ccc(O)c2O1 [Compound No. 9, 2-{[4-amino-3-(7-hydroxy-2,2-dimethyl-2,3-dihydro-1-benzofuran-4-yl)-1H-pyrazolo[3,4-d]pyrimidin-1-yl]methyl}-5-bromo-3-(1H-pyrrol-1-yl)quinazolin-4(3H)-one] | 80 to 100 | 80 to 100
17 | Cc1ccc(C)n1-n1c(Cn2nc(-c3ccc(O)c4c3CC(C)(C)O4)c3c(N)ncnc32)nc2cccc(-c3ccnn3C)c2c1=O [compound 41, 2-{[4-amino-3-(7-hydroxy-2,2-dimethyl-2,3-dihydro-1-benzofuran-4-yl)-1H-pyrazolo[3,4-d]pyrimidin-1-yl]methyl}-3-(2,5-dimethyl-1H-pyrrol-1-yl)-5-(1-methyl-1H-pyrazol-5-yl)quinazolin-4(3H)-one] | 80 to 100 | 80 to 100
18 | Cc1ccc(C2(n3c(Cn4nc(-c5ccc(O)c6c5CC(C)(C)O6)c5c(N)ncnc54)nc4cccc(C#CCO)c4c3=O)CC2)cc1 [compound 37, 2-{[4-amino-3-(7-hydroxy-2,2-dimethyl-2,3-dihydro-1-benzofuran-4-yl)-1H-pyrazolo[3,4-d]pyrimidin-1-yl]methyl}-5-(3-hydroxyprop-1-yn-1-yl)-3-[1-(4-methylphenyl)cyclopropyl]quinazolin-4(3H)-one] | 80 to 100 | 80 to 100
19 | CC1(C)Cc2c(-c3nn(Cc4nc5cccc(Cl)c5c(=O)n4C4(c5ccccc5)CC4)c4ncnc(N)c34)ccc(O)c2O1 [compound 5, 2-{[4-amino-3-(7-hydroxy-2,2-dimethyl-2,3-dihydro-1-benzofuran-4-yl)-1H-pyrazolo[3,4-d]pyrimidin-1-yl]methyl}-5-chloro-3-(1-phenylcyclopropyl)quinazolin-4(3H)-one] | 80 to 100 | 80 to 100
